Assays:
[1] = Metabolic stability in rat liver microsome assessed half life at 0.5 uM by LC-MS/MS analysis; assay type: ADME; settings: liver microsomes
[2] = Cytotoxicity against human MT2 cells assessed as cell viability measured after 4 days by XTT assay; assay type: toxicity, cell-based; settings: time 4 day
[3] = Clearance in Sprague-Dawley rat at 1 mg/kg, iv by LC-MS/MS analysis; assay type: ADME, organism-based; settings: in vivo
[4] = Metabolic stability in human liver microsome assessed half life at 0.5 uM by LC-MS/MS analysis; assay type: ADME; settings: liver microsomes
[5] = system: Human immunodeficiency virus 1; experiment: Antiviral activity against recombinant HIV1 NLRep-Rluc harbouring polymorphic T124/T125 integrase infected in human MT-2 cells assessed as inhibition of virus growth in presence of fetal bovine serum by measuring luciferase activity after 5 days; assay type: functional, organism-based, MT2
[6] = Displacement of [3H](S)-2-(tert-butoxy)-2-(2-methyl-4-(p-tolyl)quinolin-3-yl)acetic acid from LEDGF-binding site of recombinant T124/T125 polymorphic HIV1 integrase by LIDIA assay; design: species or system Human immunodeficiency virus 1
[7] = Human immunodeficiency virus 1, NLRep, MT2, 120 h

Row | SMILES | half-life at 0.5 µM [1] [min] | CC50 at 96 h [2] [µM] | clearance [3] [mL/min/kg] | half-life at 0.5 µM [4] [min] | EC50 [5, 7] [nM] | IC50 [6] [nM] | EC50 ([5]; mt2) [nM]
1 | Cc1nc(C)c(CCOc2ccc(-c3c(C)nc(C)c([C@H](OC(C)(C)C)C(=O)O)c3N3CCC(C)(C)CC3)cc2)s1 | > 120 | ≥ 25 | 30.1 | 55 | 1.1 | 11.7 | 
2 | Cc1nc(C)c([C@H](OC(C)(C)C)C(=O)O)c(N2CCC(C)(C)CC2)c1-c1ccc(Oc2ccccc2)cc1 |  | ≥ 20 |  |  | 37.5 | 53.5 | 
3 | Cc1nc(C)c([C@H](OC(C)(C)C)C(=O)O)c(N2CCC(C)(C)CC2)c1-c1ccc(OCCc2cccnc2)cc1 | 47 | ≥ 25 |  | 22 | 1.3 | 19.3 | 
4 | Cc1nc(C)c([C@H](OC(C)(C)C)C(=O)O)c(N2CCC(C)(C)CC2)c1-c1ccc(OC2COCC2c2ccc(F)cc2)cc1 (stereo in doubt; 40a) |  | ≥ 32 |  |  |  | 4.9 | 2
5 | Cc1nc(C)c([C@H](OC(C)(C)C)C(=O)O)c(N2CCC(C)(C)CC2)c1-c1ccc(OCCc2ccc(F)cc2F)cc1 | > 120 | ≥ 33.5 | 9 | 65 | 3.6 | 11.6 | 
6 | Cc1noc(C)c1CCOc1ccc(-c2c(C)nc(C)c([C@H](OC(C)(C)C)C(=O)O)c2N2CCC(C)(C)CC2)cc1 | 79 | ≥ 25 | 58.9 | 28 | 1.5 | 11.4 | 
7 | Cc1nc(CCOc2ccc(-c3c(C)nc(C)c([C@H](OC(C)(C)C)C(=O)O)c3N3CCC(C)(C)CC3)cc2)cs1 | 105 | ≥ 25 |  | 41 | 5 | 32.6 | 
8 | COc1ccc(CCOc2ccc(-c3c(C)nc(C)c([C@H](OC(C)(C)C)C(=O)O)c3N3CCC(C)(C)CC3)cc2)cc1 | > 120 | ≥ 33.5 | 13.4 | > 120 | 3.9 | 13.2 | 
9 | Cc1nc(C)c([C@H](OC(C)(C)C)C(=O)O)c(N2CCC(C)(C)CC2)c1-c1ccc(Cc2ccccc2)cc1 |  | ≥ 20 |  |  | 12.2 | 13.4 | 
10 | Cc1nc(C)c([C@H](OC(C)(C)C)C(=O)O)c(N2CCC(C)(C)CC2)c1-c1ccc(OC2CCCC2c2ccc(F)cc2)cc1 (stereo in doubt; 39b) |  |  |  |  |  | 17.7 | 5
11 | Cc1nc(C)c([C@H](OC(C)(C)C)C(=O)O)c(N2CCC(C)(C)CC2)c1-c1ccc(OCc2ccccc2)cc1 |  | ≥ 20 |  |  | 11.3 | 30.2 | 
12 | Cc1nc(C)c([C@H](OC(C)(C)C)C(=O)O)c(N2CCC(C)(C)CC2)c1-c1ccc(-c2ccccc2)cc1 |  | ≥ 20 |  |  | 31.2 | 30.7 | 
13 | Cc1nc(C)c([C@H](OC(C)(C)C)C(=O)O)c(N2CCC(C)(C)CC2)c1-c1ccc(OCCc2cc(F)c(F)cc2F)cc1 | > 120 | ≥ 33.5 | 8.1 | > 120 | 3.3 | 18.1 | 
14 | Cc1cc(CCOc2ccc(-c3c(C)nc(C)c([C@H](OC(C)(C)C)C(=O)O)c3N3CCC(C)(C)CC3)cc2)ccc1F | > 120 | ≥ 33.5 | 7.8 | > 120 | 4.8 | 21.1 | 
15 | CCc1cccc(CC)c1-c1cc(-c2ccc3c4c(ccnc24)CCO3)c(C(OC(C)(C)C)C(=O)O)c(C)n1 (racemic) |  |  |  |  | 190 | 100000 | 
16 | Cc1nc(C)c([C@H](OC(C)(C)C)C(=O)O)c(N2CCC(C)(C)CC2)c1-c1ccc(OCCc2ccncc2)cc1 |  | ≥ 25 |  |  | 0.6 |  | 
17 | Cc1nc(C)c([C@H](OC(C)(C)C)C(=O)O)c(N2CCC(C)(C)CC2)c1-c1ccc(OCCc2ccc(Cl)cc2)cc1 |  | ≥ 33.5 |  |  | 12 | 30.4 | 
18 | Cc1nc(C)c([C@H](OC(C)(C)C)C(=O)O)c(N2CCC(C)(C)CC2)c1-c1ccc(SCCc2ccc(F)cc2)cc1 | > 120 | ≥ 32 |  | > 120 | 15.6 | 98 | 
19 | Cc1ccc(CCOc2ccc(-c3c(C)nc(C)c([C@H](OC(C)(C)C)C(=O)O)c3N3CCC(C)(C)CC3)cc2)s1 | > 120 | ≥ 25 |  | > 120 | 4.4 | 49.2 | 
20 | Cc1nc(C)c([C@H](OC(C)(C)C)C(=O)O)c(N2CCC(C)(C)CC2)c1-c1ccccc1 |  |  |  |  | 67 | 55.5 | 
21 | Cc1nc(C)c([C@H](OC(C)(C)C)C(=O)O)c(N2CCC(C)(C)CC2)c1-c1ccc(NCCc2ccc(F)cc2)cc1 | 110 | ≥ 32 | 12 | 41 | 5.4 | 18 | 
22 | Cc1nc(C)c([C@H](OC(C)(C)C)C(=O)O)c(N2CCC(C)(C)CC2)c1-c1ccc(OCCCc2ccc(F)cc2)cc1 | > 120 | ≥ 32 |  | > 120 | 11.9 | 35.5 | 
23 | Cc1nc(C)c([C@H](OC(C)(C)C)C(=O)O)c(N2CCC(C)(C)CC2)c1-c1ccc(OCCc2cc(F)ccc2F)cc1 |  | ≥ 33.5 | 18.7 |  | 2.8 | 14.7 | 
24 | Cc1nc(C)c([C@H](OC(C)(C)C)C(=O)O)c(N2CCC(C)(C)CC2)c1-c1ccc(OCCc2ccccn2)cc1 | 61 | ≥ 25 |  | 30 | 0.9 | 16.7 | 
25 | Cc1nc(C)c([C@H](OC(C)(C)C)C(=O)O)c(N2CCC(C)(C)CC2)c1-c1ccc(CCCc2ccc(F)cc2)cc1 | > 120 | ≥ 32 |  | > 120 | 22.6 | 73.3 | 
26 | Cc1nc(C)c([C@H](OC(C)(C)C)C(=O)O)c(N2CCC(C)(C)CC2)c1-c1ccc(OCCc2ccccc2)cc1 | > 120 | ≥ 20 |  | > 120 | 2.3 | 9.4 | 
27 | Cc1nc(C)c([C@H](OC(C)(C)C)C(=O)O)c(N2CCC(C)(C)CC2)c1-c1ccc(OC2CCCC2c2ccc(F)cc2)cc1 (stereo in doubt; 39a) |  | ≥ 32 |  |  |  | 35.5 | 12
28 | Cc1ccc(CCOc2ccc(-c3c(C)nc(C)c([C@H](OC(C)(C)C)C(=O)O)c3N3CCC(C)(C)CC3)cc2)cc1 |  | ≥ 33.5 |  |  | 14.7 | 15.5 | 
29 | COc1cccc(CCOc2ccc(-c3c(C)nc(C)c([C@H](OC(C)(C)C)C(=O)O)c3N3CCC(C)(C)CC3)cc2)c1 | > 120 | ≥ 33.5 |  | > 120 | 1.7 | 15.9 | 

From ChEMBL document CHEMBL5046290, “Design, Synthesis, and Preclinical Profiling of GSK3739936 (BMS-986180), an Allosteric Inhibitor of HIV-1 Integrase with Broad-Spectrum Activity toward 124/125 Polymorphs” (J Med Chem, 2022)
